“Also recorded” adds a separate entry of the source.
Columns and labels:
FVB mice [1] = assay: Dexa-induced growth retardation in FVB mice (tibia length, nose to anus length); assay type: in vivo; details: HNG 1 μg/mice/day i.p. prior to Dexa 20 μg/mice/day; for rescue from Dexa-induced growth retardation (nose to anus length): 4 weeks
Procedure: Four weeks old female mice FVB strain were obtained from Charles-River, Germany. The mice were kept in animal facility under a 12-h light, 12-h dark schedule with water ad libitum. After an adaptation period, mice were injected with Dexa dissolved in saline (20 μg/mice) subcutaneously in the neck every day for 1 week (short-term). Whereas, HNG (S14G) dissolved in saline (1 μg/mice) was injected intraperitoneally, 45 minutes prior to Dexa injection. The vehicle group received saline only. After one week of treatment/injections, animals were sacrificed and the back legs (femur and tibia) were collected. The skin and muscle from the tibia was removed and final length of tibia was measured by using electronic digital caliper as reported previously (Zaman, Menendez-Benito et al. 2007).
In another study, four weeks old female mice FVB strain (Charles-river, Germany) were injected with Dexa dissolved in saline (20 μg/mice) subcutaneously in the neck every day for four week (long-term). Whereas, HNG (S14G) dissolved in saline (1 μg/mice) was injected intraperitoneally, 45 minutes prior to Dexa injection. The vehicle group received saline only. The total body length (nose to anus) was measured (centimeters, cm) manually (blinded, the cadges were coded on the day of measurment), every week. After 4 weeks of treatment, animals were sacrificed by inhalation of CO2, tissue samples (both left and right leg) were collected for subsequent analysis.
HNG injections were given […] prior to Dexa injections. […] After this, we next asked whether HNG (S14G) has any protective effects on bone growth after long-term treatment with Dexa (FIG. 3A). To investigate this, we treated mice for 4 weeks (group 2) with Dexa (20 μg/mice/day) and HNG (1 μg/mice/day). […] In FIG. 3B, total growth of the animals, nose to anus length (cm, manually) was analyzed in vehicle, Dexa, HNG (S14G) and Dexa/HNG (S14G) treated animals after four weeks of injections. **p<0.01 by 1-way ANOVA analyses, n=9-10/animals/group).

FVB mice [2] = assay: Bone mineral density by dual energy X-ray absorptiometry in FVB mice; assay type: in vivo; details: HNG 1 μg/mice/day for four weeks, vs vehicle
Procedure: Areal bone mineral density (BMD; BMC/cm^2) and BMC were measured by dual energy X-ray absorptiometry (DXA) using the Lunar PIXImus mouse densitometer (Wipro GE Healthcare, Madison, Wisc.). Ex vivo measurements were taken from FVB mice treated with Dexa and HNG for four weeks (for details see methods and materials). The measurements of left femur and tibia were performed on excised bones placed on a 1-cm-thick Plexiglas™ table. All bones compared were measured in the same scan (high-resolution scan with line spacing set at 0.01 cm). n=9-10/animals/group.
In the light of the above findings where it was observed rescuing effects of HNG (S14G) on bone growth both in vitro and in vivo, it was analyzed whether HNG (S14G) has the capacity to regulate BMD. […] Trabecular BMD in tibia (mg/cm^3) of four-week old FVB mice treated for 4 weeks was measured by using DEXA (see protocol in material and methods).

[3] = tested on: neuroblastoma (SK-N-BE(2)) xenograft; assay: Tumor volume in neuroblastoma xenograft in NMRI nude mice; assay type: in vivo, human; details: bortezomib + HNG i.p., until day 13
[4] = tested on: neuroblastoma (SK-N-BE(2)) tumor xenografts; assay: Doubling time of tumors in neuroblastoma xenografts; assay type: in vivo, human; details: combination bortezomib 0.8 mg/kg i.v. + HNG 1 μg/mouse/injection i.p.; p<0.05 vs vehicle

Substance: S14G-HN (MAPRGFSCLLLLTGEIDLPVKRRA) [HNG (S14G)]
- rescue from Dexa-induced growth retardation (tibia length) (FVB mice [1]; 1 week): protected mice from Dexa-induced growth retardation; also recorded: rescued mice from Dexa-induced growth retardation
- rescue from Dexa-induced growth retardation (nose to anus length) (FVB mice [1]): completely rescued mice from Dexa-induced growth retardation
- rescue from Dexa-induced growth retardation (nose to anus length) (FVB mice [1]; listed as HNG (314G)): protected mice from Dexa-induced growth retardation
- trabecular BMD in tibia (FVB mice [2]): trend towards increased BMD
- interference with anti-cancer effect of bortezomib (tumor volume) [3]: does not interfere with the anti-cancer effect
- tumor doubling time [4]: significant reduction in tumor doubling time
